Results reported in article PMC11110727, “Exploiting thiol-functionalized benzosiloxaboroles for achieving diverse substitution patterns – synthesis, characterization and biological evaluation of promising antibacterial agents” (RSC Medicinal Chemistry, 2024).
Values after ≈ are worked out from the molar mass of the structure shown. Read-outs that look alike come from different tables or passages of the source.

Assays:
[1] = tested on: B. bronchiseptica ATCC 4617; assay: Antibacterial activity: MIC/MBC, disc-diffusion; format: cell-based, Bordetella bronchiseptica; settings: Bordetella bronchiseptica, ATCC4617
How it was run: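 Read-outs are disc-diffusion zones, broth-microdilution MICs and bactericidal concentrations (MBC), following EUCAST and CLSI guidance. The efflux contribution was probed by rerunning MICs with 20 μg mL^−1 PAβN in MgSO4-supplemented (1 mM) Mueller–Hinton II broth, a ≥4-fold decrease being significant.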

[2] = tested on: C. parapsilosis ATCC 22019; assay: Antifungal activity: MIC/MFC, disc-diffusion; format: cell-based; settings: Lodderomyces parapsilosis, ATCC22019
How it was run: (§1)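 Strains were subcultured twice for 24–48 h at 30 °C, on TSA for bacteria and Sabouraud dextrose agar for yeasts. Disc-diffusion and MIC followed EUCAST/CLSI recommendations, and MBC/MFC followed CLSI. Compounds were dissolved in DMSO, with fluconazole or linezolid as references.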

C. tropicalis IBA 171 = assay: Antifungal activity: MIC/MFC, disc-diffusion; format: cell-based; settings: Candida tropicalis, IBA171
How it was run: as §1

[3] = tested on: Human normal lung fibroblasts MRC-5; assay: MTT-based viability (cytotoxicity) assay; settings: for IC50: Homo sapiens, MRC5, 48 h
How it was run: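 MRC-5 pd30 human lung fibroblasts in supplemented MEME at 37 °C, 5% CO2; viability by MTT, absorbance 570 nm, triplicate, as percent of control cells. Selectivity index taken as IC50/MIC against S. aureus MRSA strains.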

[4] = tested on: Staphylococcus aureus, MSSA and MRSA strains; assay: Antibacterial activity against S. aureus strains (text summaries); format: cell-based; settings: for Eagle effect (paradoxical growth) during MBC determination: S. aureus ATCC 6538P and five MRSA clinical strains
Experimental: Direct antimicrobial activity was determined against the following standard strains: (1) Gram-positive cocci: methicillin-sensitive Staphylococcus aureus ATCC 6538P (MSSA), methicillin-resistant S. aureus subsp. aureus ATCC 43300 (MRSA), S. epidermidis ATCC 12228, Enterococcus faecium ATCC 6057, E. faecalis ATCC 29212, Bacillus subtilis ATCC 6633; (2) Gram-negative bacteria from Enterobacteriales order: Klebsiella pneumoniae ATCC 13883, Escherichia coli ATCC 25922, Enterobacter cloacae DSM 6234, Proteus mirabilis ATCC 12453, Serratia marcescens ATCC 13880; (3) Gram-negative non-fermentative rods: Acinetobacter baumannii ATCC 19606, Pseudomonas aeruginosa ATCC 27853, Stenotrophomonas maltophilia ATCC 12714, S. maltophilia ATCC 13637, Burkholderia cepacia ATCC 25416, Bordetella bronchiseptica ATCC 4617; (4) yeasts: Candida albicans ATCC 90028, C. krusei ATCC 6258, C. parapsilosis ATCC 22019, C. tropicalis (Castellani) Berkhout ATCC 750, C. tropicalis IBA 171, C. guilliermondii IBA 155, and Saccharomyces cerevisiae ATCC 9763. Moreover, 5 clinical strains of methicillin-resistant S. aureus were also included: NMI 664 K, NMI 1576 K, NMI 1712 K, NMI 1991 K, and NMI 2541 K. All strains were stored at −80 °C. Prior to testing, each bacterial strain was subcultured twice on tryptic soy agar TSA (bioMerieux) medium and yeast strains on Sabouraud dextrose agar (bioMerieux) for 24–48 h at 30 °C to ensure viability. The antimicrobial activity was evaluated as previously described[26] by the disc-diffusion method and the MIC determination assays according to the EUCAST (ref. [71] and [72]) and CLSI (ref. [53] and [73]) recommendations. Assessment of bactericidal (MBC) and fungicidal (MFC) activities was performed according to the CLSI recommendations.[54,74] The following reference agents were used: fluconazole (in the case of fungi), linezolid (for Gram-positive bacteria), and nitrofurantoin (for Gram-negative rods). The new benzosiloxaboroles were dissolved in DMSO (Sigma).

[5] = B. bronchiseptica ATCC 4617, read-out: MIC
[6] = Staphylococcus aureus, both MSSA and MRSA strains, read-out: MIC values against Staphylococcus aureus
[7] = Staphylococcus aureus, standard and five clinical MRSA strains (Table 4), read-out: MIC (MRSA)

C[Si]1(C)OB(O)c2cc(F)c(SCCS(=O)(=O)c3ccccc3)c(F)c21 [Compound 20, 5,7-Difluoro-1,1-dimethyl-6-((2-(phenylsulfonyl)ethyl)thio)benzo[c][1,2,5]oxasilaborol-3(1H)-ol]
MIC [1, 5]: > 400 µg/mL
MIC ([2]; read-out: MIC): > 400 µg/mL
MIC (C. tropicalis IBA 171; read-out: MIC): > 400 µg/mL
viability of MRC-5 ([3]; 6.25 µg·mL−1, 48 h): 101.2±1.7 % of control ± SD
viability of MRC-5 ([3]; 12.5 µg·mL−1, 48 h): 95.3±1.0 % of control ± SD
viability of MRC-5 ([3]; 25 µg·mL−1, 48 h): 93.5±2.1 % of control ± SD
viability of MRC-5 ([3]; 50 µg·mL−1, 48 h): 84.0±1.5 % of control ± SD
viability of MRC-5 ([3]; 100 µg·mL−1, 48 h): 68.5±4.9 % of control ± SD
viability of MRC-5 ([3]; 200 µg·mL−1, 48 h): 38.8±4.8 % of control ± SD
viability of MRC-5 ([3]; 400 µg·mL−1, 48 h): 3.4±0.9 % of control ± SD
IC50 [3]: 122 µg/mL (≈ 294 µM)
Eagle effect (paradoxical growth) during MBC determination [4]: Eagle effect
MIC [4, 6]: 1.56 to 12.5 µg/mL (≈ 3.77 to 30.2 µM)
MIC [4, 7]: 3.12 to 6.25 µg/mL (≈ 7.53 to 15.1 µM)

CC(=O)CSc1ccc2c(c1F)[Si](C)(C)OB2O [Compound 22, 1-((7-Fluoro-3-hydroxy-1,1-dimethyl-1,3-dihydrobenzo[c][1,2,5]oxasilaborol-6-yl)thio)propan-2-one]
MIC [1, 5]: > 400 µg/mL
MIC ([2]; read-out: MIC): > 400 µg/mL
MIC (C. tropicalis IBA 171; read-out: MIC): > 400 µg/mL
viability of MRC-5 ([3]; 6.25 µg·mL−1, 48 h): 92.1±0.1 % of control ± SD
viability of MRC-5 ([3]; 12.5 µg·mL−1, 48 h): 91.5±2.5 % of control ± SD
viability of MRC-5 ([3]; 25 µg·mL−1, 48 h): 85.2±1.1 % of control ± SD
viability of MRC-5 ([3]; 50 µg·mL−1, 48 h): 94.4±2.1 % of control ± SD
viability of MRC-5 ([3]; 100 µg·mL−1, 48 h): 78.4±4.5 % of control ± SD
viability of MRC-5 ([3]; 200 µg·mL−1, 48 h): 69.6±3.7 % of control ± SD
viability of MRC-5 ([3]; 400 µg·mL−1, 48 h): 41.4±0.4 % of control ± SD
IC50 [3]: > 200 µg/mL
MIC [4, 6]: 1.56 to 12.5 µg/mL (≈ 5.49 to 44 µM)
MIC [4, 7]: 3.12 to 6.25 µg/mL (≈ 11 to 22 µM)

C[Si]1(C)OB(O)c2ccc(SCC(=O)c3ccccc3)c(F)c21 [Compound 23, 2-((7-Fluoro-3-hydroxy-1,1-dimethyl-1,3-dihydrobenzo[c][1,2,5]oxasilaborol-6-yl)thio)-1-phenylethan-1-one]
MIC [1, 5]: > 400 µg/mL
MIC ([2]; read-out: MIC): 400 µg/mL (≈ 1160 µM)
MIC (C. tropicalis IBA 171; read-out: MIC): 400 µg/mL (≈ 1160 µM)
viability of MRC-5 ([3]; 6.25 µg·mL−1, 48 h): 99.3±8.4 % of control ± SD
viability of MRC-5 ([3]; 12.5 µg·mL−1, 48 h): 94.3±0.1 % of control ± SD
viability of MRC-5 ([3]; 25 µg·mL−1, 48 h): 83.3±4.4 % of control ± SD
viability of MRC-5 ([3]; 50 µg·mL−1, 48 h): 85.9±5.1 % of control ± SD
viability of MRC-5 ([3]; 100 µg·mL−1, 48 h): 64.2±3.6 % of control ± SD
viability of MRC-5 ([3]; 200 µg·mL−1, 48 h): 32.0±0.3 % of control ± SD
viability of MRC-5 ([3]; 400 µg·mL−1, 48 h): 1.0±1.3 % of control ± SD
IC50 [3]: 126 µg/mL (≈ 364 µM)
Eagle effect (paradoxical growth) during MBC determination [4]: Eagle effect
MIC [4, 6]: 1.56 to 12.5 µg/mL (≈ 4.51 to 36.1 µM)
MIC [4, 7]: 1.56 to 3.12 µg/mL (≈ 4.51 to 9.01 µM)

CCOP(=O)(OCC)Sc1c(F)cc2c(c1F)[Si](C)(C)OB2O [Compound 24, S-(5,7-Difluoro-3-hydroxy-1,1-dimethyl-1,3-dihydrobenzo[c][1,2,5]oxasilaborol-6-yl) O,O-diethyl phosphorothioate]
MIC [1]: > 400 µg/mL
MIC [2]: > 400 µg/mL
MIC (C. tropicalis IBA 171): > 400 µg/mL
viability of MRC-5 ([3]; 6.25 µg·mL−1, 48 h): 95.5±1.4 % of control ± SD
viability of MRC-5 ([3]; 12.5 µg·mL−1, 48 h): 83.9±0.1 % of control ± SD
viability of MRC-5 ([3]; 25 µg·mL−1, 48 h): 81.6±2.6 % of control ± SD
viability of MRC-5 ([3]; 50 µg·mL−1, 48 h): 78.2±3.0 % of control ± SD
viability of MRC-5 ([3]; 100 µg·mL−1, 48 h): 73.0±4.0 % of control ± SD
viability of MRC-5 ([3]; 200 µg·mL−1, 48 h): 76.5±3.8 % of control ± SD
viability of MRC-5 ([3]; 400 µg·mL−1, 48 h): 60.5±3.8 % of control ± SD
IC50 [3]: > 400 µg/mL
Eagle effect (paradoxical growth) during MBC determination [4]: Eagle effect
MIC [4, 6]: 1.56 to 12.5 µg/mL (≈ 4.08 to 32.7 µM)

C[Si]1(C)OB(O)c2ccc(SC(=O)c3ccc(C(F)(F)F)cc3)c(F)c21 [Compound 25, S-(7-Fluoro-3-hydroxy-1,1-dimethyl-1,3-dihydrobenzo[c][1,2,5]oxasilaborol-6-yl) 4-(trifluoromethyl)benzothioate]
MIC [1, 5]: > 50 µg/mL
MIC ([2]; read-out: MIC): > 50 µg/mL
MIC (C. tropicalis IBA 171; read-out: MIC): 50 µg/mL (≈ 125 µM)
IC50 [3]: 112 µg/mL (≈ 279 µM)
MBC ([4]; Staphylococcus aureus, lowest MBC values): 25 to 50 µg/mL (≈ 62.5 to 125 µM)
